Experiments:
[1] = test system: HCV (JFH-1, genotype 2a) in Huh7 cells; experiment: Interferon treatment of HCV.JFH1-Rbz transfected Huh7 cells, viral production by HCV core Ag level in the medium; assay type: cell-based, Hepatitis C virus; settings: treated with interferon one day after transfection, HCV core Ag level in medium (FIG. 13B)
Source text: FIG. 13. Production of infectious HCV in culture. (A). Full-length genomic cDNAs of HCV genotypes 1a (H77), 2b (J6), and 2a (JFH-1) were cloned into the HCV-ribozyme construct as described in FIG. 7. The constructs and the pTHr plasmid containing the CG1b HCV genome as described above were transfected into Huh7 cells and tested for virus production in the medium by using HCV core Ag ELISA. (B) HCV.JFH1-Rbz construct was transfected to Huh7 cells and treated with interferon one day after transfection. Viral production was monitored by measurement of HCV core Ag level in the medium. (C) Long-term culture of HCV.JFH1.Rbz transfected Huh7 cells were maintained with serial passage for the indicated duration. Culture medium was harvested at indicated times for HCV core Ag level and HCV RNA titer. […] Multiple foci of cells with positive intracellular staining were detected.
HCV RNA, Protein Quantitation, and RACE. HCV RNA level was quantitated by using the TaqMan real-time PCR method as previously described (Thomson, M. et al. 2001 Gastroenterology 121:1226-33). […] The core protein was quantitated by using the HCV core ELISA kits, which were provided by S. Yagi (Advanced Life Technology, Saitama, Japan) and used as previously described (Tanaka, E. et al. 2000 Hepatology 32: 388-93). […]

[2] = test system: HCV; settings: HCV-infected individuals treated with IFN; cited from earlier work

interferon-alfa
Sensitivity of viral replication to interferon-alfa treatment [1]: sensitive | Proportion of those treated showing a sustained response as evidenced by lack of circulating HCV RNA [2]: 10-20%

Source: patent US20090017070A1, “In vitro model for hepatitis c virion production” (priority 2004, published 2009)
